# Source: patent US20060115458A1, “Material for repairing biological tissues, product for repairing biological tissues, and method of manufacturing material for repairing biological tissues” (OLYMPUS CORPORATION, priority 2004, published 2006)
# Legend:
# [1] = system: normal human osteoblast NHOst; test: Proliferation rate of osteoblasts cultured with metal salts (TetraColor ONE); type: cell-based; conditions: as concentration became higher; 2 weeks culture; control group = 100%; FIG. 1
# Procedure: (§1) As a medium, α-MEM medium containing β-sodium glycerophosphate and fetal calf serum was used.
# (§2) The cell culturing method was such that about 1×10^4 osteoblasts were seeded in each well in a collagen type I coated 24 well microplate. Then after 24 hours the product was replaced with 1 ml of medium containing a prescribed concentration of metal salts, after which it was further replaced with a medium containing the same concentration of metal salts three times per week, and the culturing was performed for 2 weeks.
# The proliferation rate was measured as follows. 1 ml of medium containing 20 μl/ml of living cell measuring reagent, TetraColor ONE (Seikagaku Corporation) was added into each well. After 2 hours of culturing, the absorbency at 450 nm (control wavelength was 600 nm) was measured. The proliferation rate of the respective experimental groups was obtained assuming that the absorbancy of the control group was 100%.
# [2] = system: normal human osteoblast NHOst; test: Differentiation rate of osteoblasts cultured with metal salts (calcium content per well); type: cell-based; conditions: as concentration became higher; 2 weeks culture; calcium content of control group = 100%; FIG. 2
# Procedure: as §1, §2
# The differentiation rate was measured as follows. 1 ml of 0.1N hydrochloric acid was added into each well and left at room temperature for 15 hours to obtain the hydrochloric acid extract of each well. Using calcium C-Test Wako (Wako Pure Chemical Industries, Ltd.), 10 μl of hydrochloric acid extract was added with 1 ml of 0.88 M monoethanolamine buffer (pH 11.0), then 100 μl of 0.63 mM ortho-cresolphthalein complexone and 100 μl of 69 mM 8-quinolinol. After 15 minutes of reaction at room temperature, the absorbancy at 570 nm was measured to determine the calcium content per well. The differentiation rate of the respective experimental groups was obtained assuming that the calcium content of the control group was 100%.
compound,measurement,setting,value
[Cl][Nb]([Cl])([Cl])([Cl])[Cl] [niobium pentachloride],proliferation rate of osteoblasts,[1],increased the proliferation rate
same,differentiation rate of osteoblasts,[2],increased the differentiation rate
